Measured values taken from patent US9274101B2 (BIOLOG, Inc., priority 2001, dated 2016).

Tests used:
ten strains of E. coli = format: cell-based, Escherichia coli; further: key: +: indicates that the organism tested was capable of utilizing the carbon source listed; −: indicates that the organism tested was not capable of utilizing the carbon source listed; indicates weak positive reactions
E. coli MG1655 [1] = format: cell-based, Escherichia coli
[2] = system: Salmonella typhimurium auxotrophs hisF645 and pyrCΔ73; format: cell-based
A549 cells [3] = assay: Substrate utilization by A549 cells at increasing serum, with and without free amino acids; format: cell-based; conditions: varying FCS, presence and absence of free amino acids (FIG. 11)
Method: Briefly, A549 cells were suspended in RPMI-salts+RPMI-vitamins+1× Pen/Strep with or without RPMI-amino acids at 400,000 cells/mL and dispensed in 50 uL to wells containing a testing substrates (e.g., inosine, pyruvic acid, glucose, L-glutamine, L-arginine, etc.) and FCS to achieve the indicated final concentrations. The cells were incubated for 2 days at 37° C. under 5% CO2-95% air (pre-incubation phase), before a redox dye mix was added. The cells were incubated for an additional 5 hr at 37° C. under 5% CO2-95% air (incubation phase), before color development was measured.

IMR-90 cells = assay: Testing of IMR-90 cells in PM1a testing plates; format: cell-based; conditions: for cellular morphology (microscopic): approximately 4.5 hours at 37° C.
Method: IMR-90 cells were cultured in DMEM in 150 mm diameter petri dishes to near confluence under suitable conditions (e.g., 5% CO2, at 37° C.). The cells were harvested from 19 petri dishes, using the standard trypsin-EDTA procedure to detach the cells (i.e., 5 minute treatment with trypsin-EDTA), pooled and centrifuged at 1000×g for 5 minutes at 2-8° C., and resuspended in HBSS without phenol red. The cells were again centrifuged and resuspended in 24 ml inoculating fluid (IF-h). The cell density as determined by measurement using a Coulter Counter was about 3,000,000 cells/ml. Two-fold serial dilutions were prepared using prewarmed inoculating fluid, by mixing 12 ml of cell suspension with 12 ml IF-h, to produce six suspensions having 3,000,000 cells/ml (undiluted), 1,500,000 cells/ml, 750,000 cells/ml, 375,000 cells/ml, 187,500 cells/ml, and 93,750 cells/ml. A “no cell” control was also prepared, using 12 ml inoculating fluid. Each of the cell suspensions was then immediately inoculated into a PM1a PHENOTYPE MICROARRAY testing panel (Biolog), with about 100 μl of suspension added per well.
After approximately 4.5 hours of incubation at 37° C. in a CO2 incubator, the PHENOTYPE MICROARRAY testing panels were visually examined. […] The amount of background pink color was somewhat varied, depending upon the cell concentration. At the highest cell densities, there was a light pink color in all of the wells.

A549 cells [4] = assay: Metabolic profile of A549 cells with 5% or 20% dialyzed or non-dialyzed FCS; format: cell-based; conditions: FCS 5% or 20%, dialyzed or not (FIG. 10)
Method: Briefly, A549 cells were suspended at 400,000 cells/mL in RPMI-salts+RPMI-vitamins+1× Pen/Strep (Penicillin/Streptomycin) without amino acids but containing either 5% or 20% dialyzed or non-dialyzed FCS. Cells were dispensed in 50 uL to wells containing a plurality of testing substrates (glycogen, glucose and pyruvate among others) at final concentrations of 20, 15, 10.5, 2.5 and 1.2 mM of each testing substrate. The cells were incubated for 2 days at 37° C. under 5% CO2-95% air (pre-incubation phase), before a redox dye mix was added. The cells were incubated for an additional 5 hr at 37° C. under 5% CO2-95% air (incubation phase), before color development was measured.

E. coli MG1655 [5] = assay: PM kinetic profiles of antimicrobials, S-O-R scoring and dendrogram; format: cell-based, Escherichia coli; conditions: 1× level of each antimicrobial, 7 PMs, 48 hours
HL-60 cells [6] = assay: Effect of 1 mM chloramphenicol on HL-60 energy utilization; format: cell-based, human; conditions: 1 mM chloramphenicol
Method: In this Example, methods for testing antimicrobial-induced modulation in growth of a cell are described. The antimicrobial selected for this Example is chloramphenicol. However, this application is not intended to be limited to the use of chloramphenicol, translation inhibitors or even antibiotics. HL-60 cells were cultured as described in Example 27.
After washing, HL-60 cells were resuspended in DME-R. An aliquot of the cell suspension was counted by trypan blue exclusion and the cell density was adjusted to 6.67×10^5[…]. Fifty μL of DME-R containing 3 mM chloramphenicol were added to each well of the appropriate number of half area, 96-well plates, followed by 25 μL of the appropriate dilution of each test energy source. Stocks of 133 mM of each test chemical were prepared in tissue culture grade water, sterile filtered, and dilutions were prepared in a master plate so that, upon dilution in a total volume of 150 μL, the final concentrations would be 0.033 to 20 mM. Negative control wells received 25 μL of tissue culture grade water. The cells were plated at a volume of 75 μL/well, giving a final cell density of 5×10^4/well. For each plate containing energy sources and cells, a second, control plate containing only energy sources was prepared. Plates were incubated at 5% CO2, 90-100% humidity, and 37° C. for 24 hours prior to addition of the MTS/MPMS colorimetric reagent (7.5 μL/well). The color formed in each well 24 hours after addition of the colorimetric reagent, was measured with a plate reader at 490 nm with a reference wavelength of 650 nm. OD values from the control plate were subtracted from the OD values obtained with cells prior to normalizing the data to % negative control.
Data shown in Table 25 are expressed as percent negative control without chloramphenicol. […] Chloramphenicol clearly has a different effect on the cells than citrate shown in Example 33.

HL-60 cells [7] = assay: Chloramphenicol IC50 for cells in complete medium; format: cell-based; conditions: Homo sapiens, read-out: IC50 concentration
E. coli (MG1655) = assay: Sensitivity in ES1, ES2, ES3 MICROPLATE panels in the presence of vancomycin or sulfamethoxazole (synergy/antagonism); format: cell-based, Escherichia coli
[8] = system: vancomycin-intermediate S. aureus isolates (VISA); conditions: cited from earlier work
HepG2 cells = HepG2 cells cultured on CYTODEX 3 microcarriers, energy sources; format: cell-based, human; conditions: Homo sapiens, HepG2, 68 h, read-out: Responses of HepG2 Cells Cultured on Microcarriers After 68 hours in Culture and a 4 hour Color Development Period
Summary of the method: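 HepG2 cells on CYTODEX 3 microcarriers, held in methylcellulose-containing DME with 10% HI FBS lacking glucose, glutamine and pyruvate, exposed to test energy sources at 0.033–20 mM final. After 68 h at 37 °C, MTS/PMS read at 490 nm (ref 650 nm) after 4–8 h; cell-free background subtracted, normalized to % no-energy-source control.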

TK-1 cells = TK-1 cells in PM1 and PM2 plates, with or without 0.5 mM sodium pyruvate; format: cell-based, mouse; conditions: in the presence of 0.5 mM sodium pyruvate
Method: In this Example, methods for testing a murine T lymphoma cells (Butcher et al., Eur. J. Immunol., 10:556-561 [1980]), for their ability to use multiple carbon sources are described. The methods used to culture the TK-1 lymphoma cell line were similar to those used to culture HL-60 cells, as described in Example 27.
TK-1 cells were grown in Falcon tissue culture flasks with vented tops. Culture medium was RPMI 1640 medium (Invitrogen 11875) with 4.5 g/L glucose, 2 mM L-glutamine, 1 mM sodium pyruvate, 0.1 mM nonessential amino acids (NEAA), 0.05 mM 2-mercaptoethanol (2ME), 2 g/L sodium bicarbonate, 5 mg/L phenol red, 50 U/mL penicillin, 50 μg/mL streptomycin, and 10% (v/v) heat inactivated fetal bovine serum (HI FBS, Invitrogen 16140). The cells were seeded at 3×10^5/mL, subcultured at 3 days after initiation of culture to 10^6 cells/mL and used 24 hours later. During all incubations, the cells were kept in an atmosphere of 5% CO2, 90-100% humidity, and 37° C.
A viable cell count was obtained by trypan blue exclusion and an appropriate volume of the cell suspension was placed in a polypropylene centrifuge tube. The cells were washed in DPBS and then resuspended to two-thirds the final volume needed in Dulbecco ? s Modified Eagle ? s Medium (DME, Sigma D5030) with the supplements listed in Table 17, as well as 2-ME, sodium pyruvate and NEAA, and including 10% HI FBS, but without glucose, L-glutamine, sodium pyruvate, and phenol red. This medium is termed DME-RTK. An aliquot was counted by trypan blue exclusion and the cell density was adjusted to 1×10^6/mL. Fifty μL of DME-RTK were added to each well of the appropriate number of half area, 96-well plates (PM1 and PM2 MICROPLATE testing plates). The cells were divided into two lots and one lot received a 1/100 dilution of 100 mM sodium pyruvate (final concentration, 0.5 mM). Cells from both lots were plated at a final cell density of 5×10^4/well (50 μL/well). For each plate containing chemicals and cells, a second, control plate containing only chemicals was prepared. Plates were incubated at 5% CO2, 90-100% humidity, and 37° C. for 1 hour prior to addition of the MTS/MPMS colorimetric reagent (5 μL/well). The color formed in each well 24 hours after addition of the colorimetric reagent, was measured with a plate reader at 490 nm with a reference wavelength of 650 nm. OD values from the control plate were subtracted from the OD values obtained with cells prior to normalizing the data to % negative control.

A549 cells [9] = assay: Glucose utilization by A549 cells in response to insulin, cross-titration; format: cell-based; conditions: cross titration format (FIG. 12)
Method: Briefly, A549 cells were suspended in RPMI-salts+RPMI-vitamins+1× Pen/Strep without amino acids at 400,000 cells/mL and dispensed in 50 uL to wells containing glucose to achieve the indicated final glucose concentrations. Insulin was then added to achieve the indicated final insulin concentrations. The cells were adapted to glucose by maintaining the cells for 2 days at 37° C. under 5% CO2-95% air (pre-incubation phase), before a redox dye mix was added. Color development was measured after maintaining the cells for an additional 5 hr at 37° C. under 5% CO2-95% air (incubation phase).

Molecule: OC[C@H]1O[C@@H](n2cnc3c(O)ncnc32)[C@H](O)[C@@H]1O [Inosine]
- carbon source utilization (ten strains of E. coli): +
- suitability as nitrogen source (growth, purple color) (E. coli MG1655 [1]): not suitable
- growth stimulation (well color) [2]: turned weakly purple
- rate of substrate use (dye reduction) (A549 cells [3]): used more rapidly in the presence of amino acids

Molecule: CC(=O)C(=O)O [Pyruvic acid]
- carbon source utilization (ten strains of E. coli): +
- cellular morphology (microscopic) (IMR-90 cells): the cells looked healthy
- dye reduction (A549 cells [4]): stimulated A549 cell mediated dye reduction
- rate of substrate use (dye reduction) (A549 cells [3]): used more rapidly in the absence of amino acids

Molecule: O=C(N[C@H](CO)[C@H](O)c1ccc([N+](=O)[O-])cc1)C(Cl)Cl [chloramphenicol]
- position in dendrogram of PM response profiles (FIG. 9) (E. coli MG1655 [5]): cluster
- effect on signal compared to untreated cells (HL-60 cells [6]): severe reduction in signal in almost all conditions
- IC50 (HL-60 cells [7]): 1000 µM

Molecule: CN[C@H](CC(C)C)C(=O)N[C@H]1C(=O)N[C@@H](CC(N)=O)C(=O)N[C@H]2C(=O)N[C@H]3C(=O)N[C@H](C(=O)N[C@H](C(=O)O)c4cc(O)cc(O)c4-c4cc3ccc4O)[C@H](O)c3ccc(c(Cl)c3)Oc3cc2cc(c3O[C@@H]2O[C@H](CO)[C@@H](O)[C@H](O)[C@H]2O[C@H]2C[C@](C)(N)[C@H](O)[C@H](C)O2)Oc2ccc(cc2Cl)[C@H]1O [vancomycin]
- change of sensitivity to the panel compound (E. coli (MG1655)): transient increased sensitivity
- minimum inhibitory concentration [MIC] [8]: 8 to 16 µg/mL

Molecule: OC[C@H]1O[C@H](O)[C@H](O)[C@@H](O)[C@@H]1O [α-D-glucose]
- carbon source utilization (ten strains of E. coli): +
- color of well (IMR-90 cells; 24 hours of incubation): distinctly darker clump of red cells
- cellular morphology (microscopic) (IMR-90 cells): the cells looked healthy
- activity at 30 µM (HepG2 cells; Conc. 0.03 mM): 96.3%
- activity at 100 µM (HepG2 cells; Conc. 0.10 mM): 112%
- activity at 330 µM (HepG2 cells; Conc. 0.33 mM): 126%
- activity at 1000 µM (HepG2 cells; Conc. 1.00 mM): 122%
- activity at 3300 µM (HepG2 cells; Conc. 3.3 mM): 132%
- activity at 10000 µM (HepG2 cells; Conc. 10 mM): 110%
- activity at 15000 µM (HepG2 cells; Conc. 15 mM): 84%
- activity at 20000 µM (HepG2 cells; Conc. 20 mM): 50.3%
- dye reduction (A549 cells [4]): stimulated A549 cell mediated dye reduction

Molecule: glycogen
- response of TK-1 cells (TK-1 cells): lost responses
- dye reduction (A549 cells [4]): stimulated A549 cell mediated dye reduction

Molecule: insulin
- effect on glucose depletion (dye reduction) (A549 cells [9]): insulin dependent depletion of a glucose substrate
